Experiment [1] has as its system HL-60. Nature of the experiment: Induction of apoptosis in human HL60 cells assessed as formation of apoptotic body at 10 uM after 24 hrs by fluorescence microscopic analysis. The class given is functional, cell-based.
Experiment [2] deals with HL-60. Kind of experiment: Cell cycle arrest in human HL60 cells assessed as accumulation at sub-G1 phase at 5 uM after 12 hrs using propidium iodide staining by flow cytometry (reference value: 5.2%). The class given is functional. In general terms: Flow cytometry measures light scatter and fluorescence of single cells or particles in a stream.
The subject of experiment [3] is HL-60. Kind of experiment: Cell cycle arrest in human HL60 cells assessed as accumulation at G0/G1 phase at 10 uM after 24 hrs using propidium iodide staining by flow cytometry. The class given is functional, cell-based.
Experiment [4] concerns HL-60. Kind of experiment: Cell cycle arrest in human HL60 cells assessed as accumulation at sub-G1 phase at 10 uM after 24 hrs using propidium iodide staining by flow cytometry (reference value: 6.6%). The class given is functional.
The test system of experiment [5] is HL-60. Nature of the experiment: Cell cycle arrest in human HL60 cells assessed as accumulation at sub-G1 phase at 5 to 10 uM using propidium iodide staining by flow cytometry. The note with it: TDE = time-dependent effect. The format is functional, cell-based.
Experiment [6] relates to HL-60. Kind of experiment: Cell cycle arrest in human HL60 cells assessed as accumulation at G2/M phase at 10 uM after 24 hrs using propidium iodide staining by flow cytometry. The class given is functional, cell-based.
The test system of experiment [7] is HL-60. Kind of experiment: Induction of apoptosis in human HL60 cells assessed as formation of cell shrinkage at 10 uM after 24 hrs by fluorescence microscopic analysis. The format is functional, cell-based.
Experiment [8] has as its system HL-60. Kind of experiment: Induction of apoptosis in human HL60 cells assessed as decrease in Bcl-2 protein level at 5 to 10 uM after 24 hrs by Western blotting. The format is functional, cell-based.
For experiment [9], the system named is HL-60. Nature of the experiment: Cytotoxicity against human HL60 cells after 24 hrs by MTT assay. The class given is functional, cell-based. Background: Formazan colour is commonly taken as a measure of viable cells.
The test system of experiment [10] is HL-60. Kind of experiment: Induction of apoptosis in human HL60 cells assessed as increase in cytochrome c release from mitochondria to cytosol after 24 hrs by Western blotting. The class given is functional, cell-based. On the technique in general: Immunoblotting shows a protein as a band on a membrane.
Experiment [11] relates to HL-60. Nature of the experiment: Induction of apoptosis in human HL60 cells assessed as increase in Bak protein level after 24 hrs by Western blotting. The format is functional, cell-based.
Experiment [12] deals with HL-60. Nature of the experiment: Induction of apoptosis in human HL60 cells assessed as increase of ROS production using H2DCFDA after 3 hrs by flow cytometry in presence of N-acetylcysteine. The format is functional, cell-based.
The subject of experiment [13] is HL-60. Kind of experiment: Induction of apoptosis in human HL60 cells assessed as increase of caspase-3-mediated Ac-DEVD-pNA cleavage at 10 uM after >12 hrs. The class given is functional, cell-based.
Experiment [14] relates to HL-60. Kind of experiment: Induction of apoptosis in human HL60 cells assessed as increase in Bax protein level after 24 hrs by Western blotting. The format is functional, cell-based.
Experiment [15] relates to HL-60. Kind of experiment: Cell cycle arrest in human HL60 cells assessed as accumulation at sub-G1 phase at 5 uM after 24 hrs using propidium iodide staining by flow cytometry (reference value: 6.6%). The format is functional.
Experiment [16] has as its system HL-60. Nature of the experiment: Induction of apoptosis in human HL60 cells assessed as formation of membrane blebbing at 10 uM after 24 hrs by fluorescence microscopic analysis. The format is functional, cell-based.
The subject of experiment [17] is HL-60. Kind of experiment: Cell cycle arrest in human HL60 cells assessed as accumulation at sub-G1 phase at 10 uM after 24 hrs using propidium iodide staining by flow cytometry in presence of N-acetylcysteine. The class given is functional.
The subject of experiment [18] is HL-60. Kind of experiment: Induction of apoptosis in human HL60 cells assessed as increase of ROS production using H2DCFDA after 3 hrs by flow cytometry. The class given is functional, cell-based.
Experiment [19] relates to HL-60. Kind of experiment: Cell cycle arrest in human HL60 cells assessed as accumulation at sub-G1 phase after 12 to 24 hrs using propidium iodide staining by flow cytometry. The format is functional, cell-based.
Experiment [20] deals with HL-60. Kind of experiment: Induction of apoptosis in human HL60 cells assessed as formation of chromatin condensation at 10 uM after 24 hrs by Hoechst 33342 and propidium iodide staining. The class given is functional, cell-based.
The test system of experiment [21] is HL-60. Kind of experiment: Induction of apoptosis in human HL60 cells assessed as increase of caspase-3-mediated Ac-DEVD-pNA cleavage at 10 uM after 12 hrs. The class given is functional, cell-based.
For experiment [22], the system named is HL-60. Kind of experiment: Induction of apoptosis in human HL60 cells assessed as loss of mitochondrial membrane potential using CMTMRos after 24 hrs by flow cytometry. The class given is functional, cell-based.
Experiment [23] has as its system HL-60. Kind of experiment: Cell cycle arrest in human HL60 cells assessed as accumulation at sub-G1 phase at 10 uM after 12 hrs using propidium iodide staining by flow cytometry (reference value: 5.2%). The class given is functional.

Each structure is given as a SMILES string. Active and inactive are the calls of the source. No cut-off for these calls is given here.

For `Cc1cc(O)c2c(c1)C(=O)C=CC2=O` [RAMENTACEONE], the result in the experiment on HL-60 [1], in the experiment with HL-60 [3], in the experiment on HL-60 [6], with HL-60 [7], with HL-60 [8] and in the experiment with HL-60 [16] was Active. For the same compound, the result with HL-60 [20] and in the experiment with HL-60 [21] was Active. In addition, the Activity with HL-60 [2] was 10.3%; with HL-60 [4] it was 27.5%; in the experiment with HL-60 [5], “tde”; in the experiment on HL-60 [9], “Dose-dependent effect”; with HL-60 [10], “Dose-dependent effect”; in the experiment with HL-60 [11] it was “Dose-dependent effect”. The Activity result with HL-60 [14] is “Dose-dependent effect”; in the experiment on HL-60 [15], 12.6%; in the experiment with HL-60 [17], 12.3%; in the experiment with HL-60 [18], “Dose-dependent effect”; in the experiment on HL-60 [19] it was “Dose-dependent effect”; with HL-60 [22], “Dose-dependent effect”. Further, the Activity in the experiment with HL-60 [23] came to 17.1%. The compound further yielded an IC50 in the experiment on HL-60 [9] (HL-60, 24 h) of 8.75 µM. The outcome in the experiment with HL-60 [12] and in the experiment with HL-60 [13] was inactive.

By IC50 is commonly meant the concentration that gives 50% inhibition. High values mean weaker potency in that assay, low ones greater potency in that assay.

For the origin of these results see ChEMBL document CHEMBL1949608, “Induction of apoptosis in HL-60 cells through the ROS-mediated mitochondrial pathway by ramentaceone from Drosera aliciae” (J Nat Prod, 2012).
